Experimental data: patent US20220323406A1, “METHODS AND COMPOSITIONS FOR DIFFERENTIATING STEM CELLS” (Massachusetts Institute of Technology, priority 2019, published 2022)
Where a name gives a salt, the structure may show the parent alone.

How the values were obtained:
[1] = system: ENR+CD organoids (ISC to Paneth cell differentiation); experiment: Primary screen: basal (non-stimulated) lysozyme secretion LYZ.NS, 2.5-D 384-well ENR+CD organoid differentiation; assay type: cell-based, mouse; conditions: primary screen; for Z.LYZ.NS: standard z score
From the text: (§1) High-throughput screening.

[2] = system: ENR+CD organoids (ISC to Paneth cell differentiation); experiment: Primary screen: CCh-stimulated lysozyme secretion LYZ.S, 2.5-D 384-well ENR+CD organoid differentiation; assay type: cell-based, mouse; conditions: primary screen
From the text: as §1

[3] = system: ENR+CD organoids; experiment: Primary screen: ATP (CellTiter-Glo 3D, CTG) cell number/viability, 2.5-D 384-well ENR+CD organoids; conditions: primary screen; for Z.CTG: standard z score;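 for all read-outs here: compounds given at plating and again on day 3 over a 6-day differentiation from ENR+CV stem-cell-enriched precursors, ATP measured on day 6, plate median as control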

Structure (SMILES) | Dose.FC.LYZ.NS ([1]; dose 0.08 uM) [log2 fold change] | Z.LYZ.NS (standard z score) ([1]; dose 0.08 uM) | Dose.FC.LYZ.NS ([1]; dose 0.40 uM) [log2 fold change] | Z.LYZ.NS (standard z score) ([1]; dose 0.40 uM) | Dose.FC.LYZ.NS ([1]; dose 2.00 uM) [log2 fold change] | Z.LYZ.NS (standard z score) ([1]; dose 2.00 uM) | Dose.FC.LYZ.NS ([1]; dose 10.00 uM) [log2 fold change] | Z.LYZ.NS (standard z score) ([1]; dose 10.00 uM) | Dose.FC.LYZ.S ([2]; dose 0.08 uM) [log2 fold change] | Dose.FC.LYZ.S ([2]; dose 0.40 uM) [log2 fold change] | Dose.FC.LYZ.S ([2]; dose 2.00 uM) [log2 fold change] | Dose.FC.LYZ.S ([2]; dose 10.00 uM) [log2 fold change] | Dose.FC.CTG ([3]; dose 0.08 uM) [log2 fold change] | Dose.FC.CTG ([3]; dose 0.40 uM) [log2 fold change] | Dose.FC.CTG ([3]; dose 2.00 uM) [log2 fold change] | Dose.FC.CTG ([3]; dose 10.00 uM) [log2 fold change] | Z.LYZ.NS ([1]; dose 0.08 uM) | Z.LYZ.NS ([1]; dose 0.40 uM) | Z.LYZ.NS ([1]; dose 2.00 uM) | Z.LYZ.NS ([1]; dose 10.00 uM) | also measured
N#C[C@@H]1CCCN1C(=O)CNC12CC3CC(CC(O)(C3)C1)C2 [Vildagliptin (LAF-237)] | 0.148 | 1.285 | 0.230 | 2.004 | 0.170 | 1.478 | 0.097 | 0.846 | 0.099 | 0.113 | 0.038 | 0.013 | 0.232 | 0.229 | 0.150 | 0.339 | – | – | – | – | Z.CTG (standard z score) ([3]; dose 0.08 uM): 0.553; Z.CTG (standard z score) ([3]; dose 0.40 uM): 0.547; Z.CTG (standard z score) ([3]; dose 2.00 uM): 0.358; Z.CTG (standard z score) ([3]; dose 10.00 uM): 0.811
CCO[C@@H]1OC(=O)C[C@@H]1NC(=O)[C@@H]1CCCN1C(=O)[C@@H](NC(=O)c1ccc(N)c(Cl)c1)C(C)(C)C [VX-765] | 0.043 | 0.371 | 0.036 | 0.317 | 0.059 | 0.516 | 0.022 | 0.190 | 0.091 | 0.032 | 0.061 | 0.174 | 0.154 | 0.232 | 0.165 | 0.254 | – | – | – | – | –
C[C@H]1COC2=C1C(=O)C(=O)c1c2ccc2c1CCCC2(C)C [Cryptotanshinone] | 0.143 | – | −0.120 | – | −0.182 | – | −0.288 | – | 0.156 | −0.105 | −0.288 | −0.432 | 0.199 | −0.027 | −0.184 | −0.541 | 1.243 | −1.047 | −1.585 | −2.506 | –
CC(C)OC(=O)OCOP(=O)(CO[C@H](C)Cn1cnc2c(N)ncnc21)OCOC(=O)OC(C)C [Tenofovir Disoproxil Fumarate] | 0.055 | 0.475 | −0.051 | −0.442 | −0.079 | −0.689 | −0.185 | −1.614 | 0.208 | 0.086 | −0.065 | −0.267 | 0.072 | −0.002 | −0.158 | −0.433 | – | – | – | – | –
CO[C@H]1C[C@@H]2CC[C@@H](C)[C@@](O)(O2)C(=O)C(=O)N2CCCC[C@H]2C(=O)O[C@H]([C@H](C)C[C@@H]2CC[C@@H](OCCO)[C@H](OC)C2)CC(=O)[C@H](C)/C=C(\C)[C@@H](O)[C@@H](OC)C(=O)[C@H](C)C[C@H](C)/C=C/C=C/C=C/1C [Everolimus (RAD001)] | 0.068 | – | 0.110 | – | −0.003 | – | −0.024 | – | −0.012 | −0.007 | −0.039 | −0.096 | 0.392 | 0.127 | 0.132 | −0.111 | 0.590 | 0.956 | −0.030 | −0.210 | Z.CTG ([3]; dose 0.08 uM): 0.936; Z.CTG ([3]; dose 0.40 uM): 0.304; Z.CTG ([3]; dose 2.00 uM): 0.314; Z.CTG ([3]; dose 10.00 uM): −0.266
O=C(c1ccc(Nc2nccc(-c3cc4ccccc4s3)n2)cc1)N1CCC(N2CCCC2)CC1 [IKK-16 (IKK Inhibitor VII)] | – | 0.903 | – | 0.176 | – | −0.708 | – | −2.531 | – | – | – | – | – | – | – | – | – | – | – | – | Dose.FC.LYZ.NS (log2 fold change) ([1]; dose 0.08 uM): 0.104; Dose.FC.LYZ.NS (log2 fold change) ([1]; dose 0.40 uM): 0.020; Dose.FC.LYZ.NS (log2 fold change) ([1]; dose 2.00 uM): −0.081; Dose.FC.LYZ.NS (log2 fold change) ([1]; dose 10.00 uM): −0.291; Dose.FC.LYZ.S (log2 fold change) ([2]; dose 0.08 uM): 0.092; Dose.FC.LYZ.S (log2 fold change) ([2]; dose 0.40 uM): 0.028; Dose.FC.LYZ.S (log2 fold change) ([2]; dose 2.00 uM): −0.142; Dose.FC.LYZ.S (log2 fold change) ([2]; dose 10.00 uM): −0.383; Dose.FC.CTG (log2 fold change) ([3]; dose 0.08 uM): 0.058; Z.CTG (standard z score) ([3]; dose 0.08 uM): 0.139; Dose.FC.CTG (log2 fold change) ([3]; dose 0.40 uM): −0.051; Z.CTG (standard z score) ([3]; dose 0.40 uM): −0.122; Dose.FC.CTG (log2 fold change) ([3]; dose 2.00 uM): −0.431; Z.CTG (standard z score) ([3]; dose 2.00 uM): −1.029; Dose.FC.CTG (log2 fold change) ([3]; dose 10.00 uM): −0.950; Z.CTG (standard z score) ([3]; dose 10.00 uM): −2.268
C[C@@H]1CN(CC(=O)Nc2ccc3c(c2)Cc2cccc(-c4cc(=O)cc(N5CCOCC5)o4)c2S3)C[C@H](C)O1 [KU-60019] | – | 0.365 | – | −0.012 | – | −0.132 | – | −0.769 | – | – | – | – | – | – | – | – | – | – | – | – | Dose.FC.LYZ.NS (log2 fold change) ([1]; dose 0.08 uM): 0.042; Dose.FC.LYZ.NS (log2 fold change) ([1]; dose 0.40 uM): −0.001; Dose.FC.LYZ.NS (log2 fold change) ([1]; dose 2.00 uM): −0.015; Dose.FC.LYZ.NS (log2 fold change) ([1]; dose 10.00 uM): −0.088; Dose.FC.LYZ.S (log2 fold change) ([2]; dose 0.08 uM): 0.230; Dose.FC.LYZ.S (log2 fold change) ([2]; dose 0.40 uM): 0.073; Dose.FC.LYZ.S (log2 fold change) ([2]; dose 2.00 uM): −0.049; Dose.FC.LYZ.S (log2 fold change) ([2]; dose 10.00 uM): −0.222; Dose.FC.CTG (log2 fold change) ([3]; dose 0.08 uM): 0.114; Dose.FC.CTG (log2 fold change) ([3]; dose 0.40 uM): 0.039; Dose.FC.CTG (log2 fold change) ([3]; dose 2.00 uM): 0.121; Dose.FC.CTG (log2 fold change) ([3]; dose 10.00 uM): −0.522
O=C(O[C@H]1C[C@H]2CC[C@@H](C1)[N+]21CCCC1)C(O)(c1ccccc1)c1ccccc1 [Trospium chloride] | 0.169 | 1.470 | 0.218 | 1.895 | −0.002 | −0.017 | 0.102 | 0.885 | 0.119 | 0.117 | −0.008 | 0.084 | 0.083 | −0.031 | 0.200 | 0.148 | – | – | – | – | –
O=C(c1cncc(Br)c1)N1CCC(N2CCCC2)CC1 [UNC669] | 0.066 | 0.578 | −0.006 | −0.048 | 0.070 | 0.606 | 0.029 | 0.249 | 0.047 | −0.029 | 0.025 | 0.002 | −0.095 | 0.096 | −0.235 | 0.073 | – | – | – | – | Z.CTG (standard z score) ([3]; dose 0.08 uM): −0.226; Z.CTG (standard z score) ([3]; dose 0.40 uM): 0.228; Z.CTG (standard z score) ([3]; dose 2.00 uM): −0.561; Z.CTG (standard z score) ([3]; dose 10.00 uM): 0.174
Cc1ccc(-c2cc(C(F)(F)F)nn2-c2ccc(S(N)(=O)=O)cc2)cc1 [Celecoxib] | −0.041 | – | −0.053 | – | −0.084 | – | −0.099 | – | −0.067 | −0.068 | −0.097 | −0.133 | −0.034 | −0.299 | −0.118 | −0.128 | −0.359 | −0.463 | −0.734 | −0.865 | –
CCCCCCCCc1ccc(CCC(N)(CO)CO)cc1.Cl [Fingolimod (FTY720) HCl] | −0.054 | – | 0.071 | – | 0.021 | – | −0.225 | – | −0.046 | 0.077 | −0.060 | −0.362 | −0.080 | 0.103 | −0.468 | −1.304 | −0.471 | 0.616 | 0.186 | −1.961 | Z.CTG ([3]; dose 0.08 uM): −0.191; Z.CTG ([3]; dose 0.40 uM): 0.245; Z.CTG ([3]; dose 2.00 uM): −1.119; Z.CTG ([3]; dose 10.00 uM): −3.116
